Experimental data from US20060040885A1, “Bioprosthetic heart valves” (Mayo Foundation for Medical Education and Research, a …, priority 1999, published 2006).

Assays:
[1] = tested on: cultured porcine aortic valve subendothelial cells; assay: 3H thymidine incorporation assay, serotonin-induced proliferation; type: cell-based
Protocol: To examine the direct proliferative effects of serotonin, cultured porcine aortic valve subendothelial cells were treated with 1 μM, 100 nM, and 10 nM of serotonin and then tested using a ^3H thymidine incorporation assay.

[2] = tested on: nitric oxide synthase; assay: Nitric oxide synthase activity in aortic valve endothelial cell lysates (3H-L-arginine to L-citrulline conversion); type: cell-based, pigs; conditions: valvular cells treated with pravastatin
Protocol: To assess nitric oxide synthase activity, the aortic valve endothelial cell lysates were evaluated using an NADPH disphorase reaction. Briefly, each lysate was incubated for 30 minutes in a NOS assay buffer containing ^3H-L-arginine, NADPH (100 mM), tetrahydrobiopterin (1 mM), calmodulin ([…]), and CaCl2 (25 mM). The reaction was quenched with ice cold stop buffer (2 mM EDTA, 20 mM Hepes, pH 5.5). The mixture was passed over a Dowex AG50WX-8 Na form resin and washed with one mL stop buffer. Nitric oxide synthase activity was calculated to be the amount of L-arginine converted to L-citrulline that was inhibited by 1-NAME. A scintillation counter was used to determine the amount of radioactivity.

[3] = tested on: rabbit aortic valves; assay: 1% cholesterol diet in rabbits, aortic valve immunostaining (PCNA, osteopontin) and cholesterol levels; type: in vivo, New Zealand rabbits; conditions: 1% cholesterol diet for 12 weeks
Protocol: In another experiment, osteopontin expression was evaluated. Osteopontin is a non-collagenous bone matrix protein found to be present in the hypercholesterolemic aortic valves. New Zealand rabbits (n=8) were fed with a 1% cholesterol diet for 12 weeks. Eight control animals were fed a normal chow diet. Aortic valves were cut and foam cells were identified by immunostaining for macrophage antibody. Cell proliferation was assessed by immunostaining for proliferating nuclear antigen (PCNA), and osteopontin (OP) for calcification. Transmission electron microscopy immunogold labeling confirmed osteopontin expression.

CSc1ccc2c(c1)C(N1CCN(C)CC1)Cc1ccccc1S2 (centres unmarked) [methiothepin]
effect on serotonin-induced proliferation ([1]; methiothepin 7 nM with serotonin): inhibited the serotonin-induced proliferation

CC[C@H](C)C(=O)O[C@H]1C[C@H](O)C=C2C=C[C@H](C)[C@H](CC[C@@H](O)C[C@@H](O)CC(=O)O)[C@H]21 [Pravastatin, pravastatin]
nitric oxide synthase activity versus cells treated with serum-free media alone [2]: about 100 fold

CC(C)CCC[C@@H](C)[C@H]1CC[C@H]2[C@@H]3CC=C4C[C@@H](O)CC[C@]4(C)[C@H]3CC[C@]12C [cholesterol]
number of proliferating cells (PCNA) in aortic valves compared to controls [3]: thousand-fold increase | osteopontin expression in the atherosclerotic lesion of the aortic valves [3]: increased osteopontin expression

NCCc1c[nH]c2ccc(O)cc12 [serotonin]
increase in cell proliferation compared to untreated cells ([1]; serotonin 1 μM, 100 nM and 10 nM, p<0.001): 33 fold
